# Results as given in article PMC6581923 (Journal of Molecular Neuroscience, 2018).
# T1: PAC1-R (Homo sapiens, UniProt P41586)
# T1 construct: expressed in transfected cells; host or cells: PAC1-CHO cells (CHO cells expressing PAC1-R); That they are transfected is inferred from the cell line's name
# T1 sequence (P41586 21-468): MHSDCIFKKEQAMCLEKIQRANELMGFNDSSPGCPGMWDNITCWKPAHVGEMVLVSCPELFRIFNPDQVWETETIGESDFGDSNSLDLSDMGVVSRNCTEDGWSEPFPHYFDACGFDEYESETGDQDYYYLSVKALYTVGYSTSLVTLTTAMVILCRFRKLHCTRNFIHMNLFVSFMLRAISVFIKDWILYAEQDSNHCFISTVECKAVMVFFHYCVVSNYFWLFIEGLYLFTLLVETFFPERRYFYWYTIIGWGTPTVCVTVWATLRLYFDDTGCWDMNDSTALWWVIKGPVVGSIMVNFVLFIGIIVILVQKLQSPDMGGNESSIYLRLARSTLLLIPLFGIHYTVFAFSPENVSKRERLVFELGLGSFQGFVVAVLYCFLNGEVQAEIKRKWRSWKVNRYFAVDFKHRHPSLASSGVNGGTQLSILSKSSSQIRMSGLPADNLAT
# Key:
# PAC1-R = target: T1, PAC1-R; test: cAMP accumulation assay in PAC1-CHO cells; assay type: cell-based; details: DMEM, 37 °C, 5-10 min, enzyme immunoassay for cAMP, % of maximal cAMP level with PACAP27, means ± SEM of four experiments, read-out: EC50 (activation of PAC1-R, cAMP accumulation)
# Protocol: PAC1-CHO cells cultured in Dulbecco’s Modified Eagle’s Medium (DMEM) at 37 °C were scraped off the surface with rubber policeman, washed twice with PBS and the density of the cells was adjusted to 2 × 10^6 /mL. Peptides were added to 500 uL cells suspension with the corresponding varying working concentrations of the detected factor. After incubation at 37 °C for 5-10 min cells were harvested and the lysates were subjected to cAMP quantification using the enzyme immunoassay kit for cAMP (Biyuntian, Shanghai, China), following the manufacturer’s instructions. Protein concentration of each sample was determined using BCA assay, and the cAMP level of each sample was calculated following the formula: cAMP level (pmol/mg protein) = cAMP concentration (pmol/mL)/protein concentration (mg/mL). The cAMP level in each sample was plotted as the percentage (%) of the maximal cAMP level in cells treated with PACAP27 versus the logarithmic value of the peptide concentrations. All experiments were run with at least four parallel samples and were repeated three times.
# The data are means ± SEM of four experiments
# [1] = ref Steingart et al. [2000]; cited from earlier work
# Excerpt: VIP is an important neuromodulator along the visual transmission pathways, not only in the retina, but all the way to the cortex where it influences visual information processing (Galletti and Fattori [2018]; Wilson and Glickfeld [2014]). Regarding retinoprotection, a few studies i ...
EC50 (PAC1-R),Molecule,Protection against a variety of stress factors [1]
0.0301 ± 0.0041 µM,"CC[C@H](C)[C@H](NC(=O)[C@H](CO)NC(=O)[C@H](CC(N)=O)NC(=O)[C@H](CC(C)C)NC(=O)[C@H](Cc1ccc(O)cc1)NC(=O)[C@H](CCCCN)NC(=O)[C@H](CCCCN)NC(=O)[C@@H](NC(=O)[C@H](C)NC(=O)[C@H](CCSC)NC(=O)[C@H](CCC(N)=O)NC(=O)[C@H](CCCCN)NC(=O)[C@H](CCCN=C(N)N)NC(=O)[C@H](CC(C)C)NC(=O)[C@H](CCCN=C(N)N)NC(=O)[C@@H](NC(=O)[C@H](Cc1ccc(O)cc1)NC(=O)[C@H](CC(N)=O)NC(=O)[C@H](CC(=O)O)NC(=O)[C@@H](NC(=O)[C@H](Cc1ccccc1)NC(=O)[C@@H](NC(=O)[C@H](C)NC(=O)[C@H](CC(=O)O)NC(=O)[C@H](CO)NC(=O)[C@@H](N)Cc1c[nH]cn1)C(C)C)[C@@H](C)O)[C@@H](C)O)C(C)C)C(=O)N[C@@H](CC(C)C)C(=O)N[C@@H](CC(N)=O)C(N)=O [VIP, vasoactive intestinal peptide, reference compound]",–
–,"activity-dependent neurotrophic protein (protein, UniProt Q9H2P0 1-1102, looked up) Activity-dependent …: MFQLPVNNLGSLRKARKTVKKILSDIGLEYCKEHIEDFKQFEPNDFYLKNTTWEDVGLWDPSLTKNQDYRTKPFCCSACPFSSKFFSAYKSHFRNVHSEDFENRILLNCPYCTFNADKKTLETHIKIFHAPNASAPSSSLSTFKDKNKNDGLKPKQADSVEQAVYYCKKCTYRDPLYEIVRKHIYREHFQHVAAPYIAKAGEKSLNGAVPLGSNAREESSIHCKRCLFMPKSYEALVQHVIEDHERIGYQVTAMIGHTNVVVPRSKPLMLIAPKPQDKKSMGLPPRIGSLASGNVRSLPSQQMVNRLSIPKPNLNSTGVNMMSSVHLQQNNYGVKSVGQGYSVGQSMRLGLGGNAPVSIPQQSQSVKQLLPSGNGRSYGLGSEQRSQAPARYSLQSANASSLSSGQLKSPSLSQSQASRVLGQSSSKPAAAATGPPPGNTSSTQKWKICTICNELFPENVYSVHFEKEHKAEKVPAVANYIMKIHNFTSKCLYCNRYLPTDTLLNHMLIHGLSCPYCRSTFNDVEKMAAHMRMVHIDEEMGPKTDSTLSFDLTLQQGSHTNIHLLVTTYNLRDAPAESVAYHAQNNPPVPPKPQPKVQEKADIPVKSSPQAAVPYKKDVGKTLCPLCFSILKGPISDALAHHLRERHQVIQTVHPVEKKLTYKCIHCLGVYTSNMTASTITLHLVHCRGVGKTQNGQDKTNAPSRLNQSPSLAPVKRTYEQMEFPLLKKRKLDDDSDSPSFFEEKPEEPVVLALDPKGHEDDSYEARKSFLTKYFNKQPYPTRREIEKLAASLWLWKSDIASHFSNKRKKCVRDCEKYKPGVLLGFNMKELNKVKHEMDFDAEWLFENHDEKDSRVNASKTADKKLNLGKEDDSSSDSFENLEEESNESGSPFDPVFEVEPKISNDNPEEHVLKVIPEDASESEEKLDQKEDGSKYETIHLTEEPTKLMHNASDSEVDQDDVVEWKDGASPSESGPGSQQVSDFEDNTCEMKPGTWSDESSQSEDARSSKPAAKKKATMQGDREQLKWKNSSYGKVEGFWSKDQSQWKNASENDERLSNPQIEWQNSTIDSEDGEQFDNMTDGVAEPMHGSLAGVKLSSQQA",strong protection against a variety of stress factors
